The target of assay [1] is T1, YKL-40 (Homo sapiens (Human), UniProt P36222). In words: Bio-layer interferometry (BLITz) Kd of biotinylated compounds. It is filed as binding. The settings on record: symbol preceded by asterisk; biotinylated compound on streptavidin biosensor; read-out: YKL-40:4, Kd. The method, then:
BLITz system (Sartorius) that used Bio-layer interferometry technology was applied to assess Kd of biotinylated compounds. […] During dehydration process the 10 mM stock of biotinylated compound in DMSO was diluted in MST buffer to final concentration of 0.5 μM. In addition, protein stock of recombinant YKL40 (un-tagged, purified in-house) was also prepared in MST buffer at two concentrations: 200 μM and 400 μM. The dehydrated biosensor was applied on the BLITz system that was followed by 5-step procedure: 1) initial baseline for 30 s with MST buffer in tube, 2) loading of 4 μl of biotinylated compound on drop, 3) baseline for 30 s with MST buffer in tube, 4) association of 4 μl of protein stock at one concentration or MST buffer (negative control), 5) dissociation with MST buffer in tube. The same multi-step measurement was done twice for each protein stock concentration and once for negative control. Kd was measured by the BLITz software based on global fitting using the negative control as a reference.

For assay [2], the target named is T1, YKL-40. The assay is described as follows: YKL-40:4 assay, competitive chitin binding site AlphaScreen. The settings on record: competition with biotinylated compound 4 (20 nM), YKL-40-histag 2.5 nM.
In assay [3] the target is YKL-40: heparan sulfate interaction (Homo sapiens (Human), UniProt P36222). In words: YKL-40:HS assay, heparan sulfate interference AlphaScreen. The format is binding. The note with it: competition with biotinylated heparan sulphate (60 nM). (In Alpha technology, singlet oxygen from a donor bead excites a nearby acceptor bead.)
YKL-40: heparan sulfate interaction, sequence (P36222 22-383): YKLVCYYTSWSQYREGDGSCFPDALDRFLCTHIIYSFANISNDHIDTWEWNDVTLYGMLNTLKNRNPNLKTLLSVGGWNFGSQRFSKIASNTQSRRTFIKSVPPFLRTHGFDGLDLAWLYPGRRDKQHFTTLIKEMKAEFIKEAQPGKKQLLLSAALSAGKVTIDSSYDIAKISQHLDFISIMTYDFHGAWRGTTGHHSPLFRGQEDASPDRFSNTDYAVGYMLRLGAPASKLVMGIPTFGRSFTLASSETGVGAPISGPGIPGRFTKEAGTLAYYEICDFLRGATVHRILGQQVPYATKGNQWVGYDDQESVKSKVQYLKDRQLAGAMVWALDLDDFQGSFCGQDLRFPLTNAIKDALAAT
Protocol: In the similar way to establishing YKL-40 chitin binding site competitive AlphaScreen assay (section 3), the YKL-40 AlphaScreen assay using biotinylated 9 kDa heparan sulfate fraction III was established, including the same buffer conditions (50 mM Tris HCl pH 7.4, 150 mM NaCl, 10 mM MgCl2, 0.05% Tween 20, 1 mg/mL BSA 1% DMSO). […] Next, biotinylated heparan sulfate fraction III custom-ordered from Iduron was cross-titrated with histagged YKL-40 using AlphaScreen assay described above.
Positive and negative control wells received just 8 uL of MST buffer containing 2% DMSO without inhibitor in the 2nd step (ii). In addition, negative control received just 8 uL of MST buffer containing 0% DMSO without YKL-40-histag in the 3nd step (iii). Finally, the plate luminescence was excited at 680 nm and the emission read at 520-620 nm using the AlphaScreen module in the The Spark™ 10 M multimode microplate reader (Tecan Trading AG, Männedorf, Switzerland). Inhibition percentage and IC50 values were determined using GraphPad Prism 7.0 software (GraphPad Software, San Diego, Calif., USA).

Some results are limits rather than exact numbers.

T1 sequence (P36222 22-383): as above

Usually Kd stands for the free concentration of one partner at which half of the binding sites on the other are occupied at equilibrium, for simple one-to-one binding. For `O=C(CCCC[C@@H]1SC[C@@H]2NC(=O)N[C@@H]21)NCCOCCOCCOCCOCCOCCOCCOCCOCCOCCOCCOCCOCCC(=O)NC[C@H]1CN(C2CCN(c3ccccn3)CC2)[C@@H](Cc2ccc(Cl)cc2)CO1` [Example 5, N-(((2S,5S)-5-(4-chlorobenzyl)-4-(1-(pyridin-2-yl)piperidin-4-yl)morpholin-2-yl)methyl)-1-(5-((3aS,4S,6aR)-2-oxohexahydro-1H-thieno[3,4-d]imidazol-4-yl)pentanamido)-3,6,9,12,15,18,21,24,27,30,33,36-dodecaoxanonatriacontan-39-amide], the Kd on YKL-40 [1] is less than 0.1 µM.

A word on the IC50: it is the concentration that gives 50% inhibition. A high value points to weaker potency in that assay. In the case of `Cc1ccnc(N2CCC(N3C[C@H](C)OC[C@@H]3Cc3ccc(Cl)cc3)CC2)c1F` [compound 112, (2S,5S)-5-(4-chlorobenzyl)-4-(1-(3-fluoro-4-methylpyridin-2-yl)piperidin-4-yl)-2-methylmorpholine 2,2,2-trifluoroacetate], the IC50 on YKL-40 [2] is 0.1 to 1 µM; in assay [3], less than 0.1 µM.

Regarding `Cc1nc(N2CCC(N3C[C@H](C)OC[C@@H]3Cc3ccc(Cl)cc3)CC2)sc1C` [compound 183, (2S,5S)-5-(4-chlorobenzyl)-4-(1-(4,5-dimethylthiazol-2-yl)piperidin-4-yl)-2-methylmorpholine 2,2,2-trifluoroacetate], the IC50 (on YKL-40 [2]; in assay [3]) was less than 0.1 µM throughout.

Consider `Cc1cnc(N2CCC(N3C[C@H](C)OC[C@@H]3Cc3ccc(Cl)cc3)CC2)s1` [compound 185, (2S,5S)-5-(4-chlorobenzyl)-2-methyl-4-(1-(5-methylthiazol-2-yl)piperidin-4-yl)morpholine 2,2,2-trifluoroacetate], for which the IC50 was less than 0.1 µM on YKL-40 [2] and 0.1 to 1 µM in assay [3].

(Values after patent publication US20230278996A1, “YKL-40 INHIBITORS AND THEIR THERAPEUTIC APPLICATIONS” (Molecure S.A., priority 2022, published 2023).)
